Experimental data published in ChEMBL document CHEMBL1151368, “Some new decussine-type alkaloids from Strychnos decussata, Strychnos dale and Strychnos elaecocarpa” (1981).
Active and inactive are the calls of the source. No cut-off for these calls is given here.

What was measured:
Type in all cases: functional
[1] = organism: Rattus norvegicus; assay: Muscle relaxant activity in rat assessed as reduction in electrically stimulated phrenic nerve-induced diaphragm contraction at 5.1 ug/ml; set-up: scale not given: the % may be the effect or the level left
[2] = organism: Rattus norvegicus; assay: Muscle relaxant activity in rat assessed as reduction in electrically stimulated phrenic nerve-induced diaphragm contraction at 5.1 ug/ml in presence of synstigmine
[3] = organism: Rattus norvegicus; assay: Muscle relaxant activity in rat assessed as reduction in electrically stimulated phrenic nerve-induced diaphragm contraction at 50 ug/ml

C[C@@H]1c2cnccc2C=C2c3c(c4ccccc4n31)CCN2C [DECUSSINE]
Activity [1]: 50%
Activity [2]: Active

C[C@@H]1c2cnccc2CC2c3c(c4ccccc4n31)CCN2C (stereo partly drawn)
Activity [3]: inactive
